In paper PMC9396396, “Molecular and functional interactions of alpha-synuclein with Rab3a” (The Journal of Biological Chemistry, 2022) one finds Km data, which are given here for 1 compound.

Structures are written as SMILES.

What is called Km is the concentration of substrate that gives half-maximal velocity.

The experiment relates to T1, Rab3a-a-Syn fusion construct.
T1 construct: single-chain fusion: 6-His-tag, Rab3a 15-186 (C137A, wild-type Q81), GSGS linker, alpha-synuclein 101-140 (not phosphorylated); pET15b, E. coli; with Alpha-synuclein
In words: malachite green phosphate release, Michaelis-Menten fit. Format: biochemical. The note with it: pH 7.5, 20 mM Hepes, 2 mM MgCl2, 1 mM DTT, 37 °C; a-Syn C-terminal tail covalently fused; no free a-Syn, no SUV. The source says: malachite green phosphate release, Michaelis-Menten fit on Rab3a-a-Syn fusion construct

Regarding `Nc1nc2c(ncn2[C@@H]2O[C@H](COP(=O)(O)OP(=O)(O)OP(=O)(O)O)[C@@H](O)[C@H]2O)c(=O)[nH]1` [GTP], the Michaelis-Menten constant (Km) was determined as 174 ± 46 µM.
